Test results taken from US20250186437A1, “CARBOLINE COMPOUNDS AND USE THEREOF” (PTC Therapeutics, Inc., priority 2021, published 2025).

Tests used:
MOLM-13 cells [1] = assay: MOLM-13 Cell Proliferation Assay (indicator of DHODH inhibition); assay type: cell-based; conditions: Homo sapiens, 72 Hours of culture, CellTiter-Glo, no uridine
Procedure, shortened: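 Proliferation readout via CellTiter-Glo luminescence after 72 h compound treatment (37 °C, 5% CO2, 0.5% DMSO) of MOLM-13 cells seeded at 10^4 per well in RPMI 1640/10% FBS, used as a DHODH-inhibition indicator since these cells rely on de novo pyrimidine synthesis.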

MOLM-13 cells [2] = assay: MOLM-13 Uridine Rescue Assay; assay type: cell-based; conditions: Homo sapiens; MOLM-13 cell proliferation with 100 μM Uridine added, 72 Hours of culture
Description: The following assay was conducted to measure proliferation of MOLM-13 cells in the presence of each compound studied. This assay was included as an indicator of DHODH inhibition, as growth of MOLM-13 cells is known to depend on synthesis of pyrimidines using the de novo pathway, which can be blocked by inhibition of DHODH. • 1. MOLM-13 cells were cultured in RPMI 1640 medium+10% Fetal Bovine Serum (FBS). Only low passage cells (<20) were used for the compound tests • 2. On day 1, Log-phase growing Molm-13 Cells were counted and diluted to 10^5 cells/mL in RPMI 1640 medium+10% FBS • 3. 100 μL of diluted MOLM-13 cells in 96 well white plates were seeded, for a final density of 10^4 cells/well. • 4. 0.5 μL of pre-diluted 200× compounds or DMSO control was added to each well. The final DMSO concentration was 0.5%. • 5. After 72 Hours of culture at 37° C., 5% CO2, the plates were taken out and cooled to RT, then 50 μL CellTiter-Glo® (Promega) was added, and the composition was mixed at RT for 10 minutes. • 6. The plates were then read by ViewLux (Speed-fast, Gain-High, Bining-1X, 5 seconds).
Several compounds were also tested in a Uridine rescue assay. In the Uridine rescue assay, using the procedure in Example 1 above, an additional plate of MOLM-13 cell cultures was prepared, to which 100 μM of Uridine was added in step 3 of the process.

| SMILES | IC50 (MOLM-13 cells [1]) [nM] | IC50 (MOLM-13 cells [2]) [nM] |
| --- | --- | --- |
| FC(F)(F)c1ccnc(N2CCc3c([nH]c4ccc(-n5nccn5)cc34)C2c2cnc(N3CCOCC3)nc2)n1 (stereo not shown) [Compound 288, 1-[2-(morpholin-4-yl)pyrimidin-5-yl]-6-(2H-1,2,3-triazol-2-yl)-2-[4-(trifluoromethyl)pyrimidin-2-yl]-2,3,4,9-tetrahydro-1H-pyrido[3,4-b]indole] | 4.6 | 11400 |
| Cc1nc(C)nc(N2CCc3c([nH]c4ccc(Cl)cc34)C2c2cnc(N3CCOCC3)nc2)n1 (stereo not shown) [Compound 293, 6-chloro-2-(4,6-dimethyl-1,3,5-triazin-2-yl)-1-[2-(morpholin-4-yl)pyrimidin-5-yl]-2,3,4,9-tetrahydro-1H-pyrido[3,4-b]indole] | 12.8 | 10600 |
| Cc1ncnc(N2CCc3c([nH]c4ccc(Cl)cc34)C2c2cnc(N3CCOCC3)nc2)n1 (stereo not shown) [Compound 294, 6-chloro-2-(4-methyl-1,3,5-triazin-2-yl)-1-[2-(morpholin-4-yl)pyrimidin-5-yl]-2,3,4,9-tetrahydro-1H-pyrido[3,4-b]indole] | 20.8 | 12400 |
| Nc1cc(Cl)cc2c3c([nH]c12)C(c1cnc(N2CCOCC2)nc1)N(c1nccc(C(F)(F)F)n1)CC3 (stereo not shown) [Compound 310, 6-chloro-1-[2-(morpholin-4-yl)pyrimidin-5-yl]-2-[4-(trifluoromethyl)pyrimidin-2-yl]-2,3,4,9-tetrahydro-1H-pyrido[3,4-b]indol-8-amine] | 1.1 | 14400 |
| Nc1cc2[nH]c3c(c2cc1Cl)CCN(c1nccc(C(F)(F)F)n1)C3c1cnc(N2CCOCC2)nc1 (stereo not shown) [Compound 311, 6-chloro-1-[2-(morpholin-4-yl)pyrimidin-5-yl]-2-[4-(trifluoromethyl)pyrimidin-2-yl]-2,3,4,9-tetrahydro-1H-pyrido[3,4-b]indol-7-amine] | 2.1 | 8470 |

Other lines, results leading:

| IC50 (MOLM-13 cells [1]) [nM] | IC50 (MOLM-13 cells [2]) [nM] | SMILES |
| --- | --- | --- |
| 7.5 | 29700 | Cc1ccc(C2c3[nH]c4ccc(Cl)c(N)c4c3CCN2c2nccc(C(F)(F)F)n2)c(F)c1F (stereo not shown) [Compound 273, 6-chloro-1-(2,3-difluoro-4-methylphenyl)-2-[4-(trifluoromethyl)pyrimidin-2-yl]-2,3,4,9-tetrahydro-1H-pyrido[3,4-b]indol-5-amine] |
| 1.7 | 4810 | N#Cc1ccc(C2c3[nH]c4ccc(Cl)cc4c3CCN2c2nccc(C(F)(F)F)n2)c(F)c1F (stereo not shown) [Compound 278, 4-{6-chloro-2-[4-(trifluoromethyl)pyrimidin-2-yl]-2,3,4,9-tetrahydro-1H-pyrido[3,4-b]indol-1-yl}-2,3-difluorobenzonitrile] |
| 23.2 | 11500 | Cc1ccc(C2c3[nH]c4cc(N)c(Cl)cc4c3CCN2c2nccc(C(F)(F)F)n2)c(F)c1F (stereo not shown) [Compound 282, 6-chloro-1-(2,3-difluoro-4-methylphenyl)-2-[4-(trifluoromethyl)pyrimidin-2-yl]-2,3,4,9-tetrahydro-1H-pyrido[3,4-b]indol-7-amine] |
| 12.9 | 12200 | Cc1nc(C)nc(N2CCc3c([nH]c4ccc(Cl)cc34)C2c2ccc(N3CCOCC3)c(F)c2F)n1 (stereo not shown) [Compound 284, 6-chloro-1-[2,3-difluoro-4-(morpholin-4-yl)phenyl]-2-(4,6-dimethyl-1,3,5-triazin-2-yl)-2,3,4,9-tetrahydro-1H-pyrido[3,4-b]indole] |
| 1 | 11600 | Cc1ccc(C2c3[nH]c4ccc([N+](=O)[O-])cc4c3CCN2c2nccc(C(F)(F)F)n2)c(F)c1F (stereo not shown) [Compound 305, 1-(2,3-difluoro-4-methylphenyl)-6-nitro-2-[4-(trifluoromethyl)pyrimidin-2-yl]-2,3,4,9-tetrahydro-1H-pyrido[3,4-b]indole] |
| 3.8 | 10700 | FC(F)(F)c1ccnc(N2CCc3c([nH]c4ccc(-n5nccn5)cc34)C2c2ccc(N3CCOCC3)nc2)n1 (stereo not shown) [Compound 316, 1-[6-(morpholin-4-yl)pyridin-3-yl]-6-(2H-1,2,3-triazol-2-yl)-2-[4-(trifluoromethyl)pyrimidin-2-yl]-2,3,4,9-tetrahydro-1H-pyrido[3,4-b]indole] |
